Kd data for one compound are collected here from BindingDB's records for patent US20240343747 (Accro Bioscience (HK), 2024).

Test in all cases: Competitive Binding Assay
Test [1] addresses T1, Non-receptor tyrosine-protein kinase TYK2 [575-869] (Homo sapiens, UniProt P29597).
T1 construct: 575-869
The procedure:
(§1) The lysates were centrifuged and filtered to remove cell debris. The remaining kinases were produced in HEK-293 cells and subsequently tagged with DNA for qPCR detection. Streptavidin coated magnetic beads were treated with biotinylated small molecule ligands for 30 minutes at room temperature to generate affinity resins for kinase assays. The liganded beads were blocked with excess biotin and washed with blocking buffer (SeaBlock (Pierce), 1% BSA, 0.05 % Tween 20, 1 mM DTT) to remove unbound ligand and to reduce non-specific binding. […] Test compounds were prepared as 111X stocks in 100% DMSO. Dissociation constants (Kds) were determined using an 11-point 3-fold compound dilution series with three DMSO control points. All compounds for Kd measurements are distributed by acoustic transfer (non-contact dispensing) in 100% DMSO. The compounds were then diluted directly into the assays such that the final concentration of DMSO was 0.9%. All reactions performed in polypropylene 384-well plate. Each was a final volume of 0.02 ml. The assay plates were incubated at room temperature with shaking for 1 hour and the affinity beads were washed with wash buffer (1×PBS, 0.05% Tween 20). The beads were then re-suspended in elution buffer (1×PBS, 0.05% Tween 20, 0.5 μM nonbiotinylated affinity ligand) and incubated at room temperature with shaking for 30 minutes. The kinase concentration in the eluates was measured by qPCR.

Test [2] has as its target T2, Tyrosine-protein kinase JAK1 [837-1142] (Homo sapiens, UniProt P23458).
T2 construct: 837-1142
The procedure:
as §1

The target in test [3] is T3, Tyrosine-protein kinase JAK2 [808-1132] (Homo sapiens, UniProt O60674).
T3 construct: 808-1132
T3 sequence (O60674 798-1132): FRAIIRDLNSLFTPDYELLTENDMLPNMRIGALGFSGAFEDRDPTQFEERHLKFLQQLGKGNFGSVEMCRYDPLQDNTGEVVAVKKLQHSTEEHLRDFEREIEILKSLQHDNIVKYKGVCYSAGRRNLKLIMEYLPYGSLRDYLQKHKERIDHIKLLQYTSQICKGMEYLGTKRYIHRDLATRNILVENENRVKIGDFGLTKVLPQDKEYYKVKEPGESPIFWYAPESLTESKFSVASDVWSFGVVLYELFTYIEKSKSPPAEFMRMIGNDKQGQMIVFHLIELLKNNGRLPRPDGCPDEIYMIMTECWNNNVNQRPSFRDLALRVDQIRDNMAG
The procedure: as §1

SMILES strings stand for the structures.

T2 sequence (P23458 837-1142): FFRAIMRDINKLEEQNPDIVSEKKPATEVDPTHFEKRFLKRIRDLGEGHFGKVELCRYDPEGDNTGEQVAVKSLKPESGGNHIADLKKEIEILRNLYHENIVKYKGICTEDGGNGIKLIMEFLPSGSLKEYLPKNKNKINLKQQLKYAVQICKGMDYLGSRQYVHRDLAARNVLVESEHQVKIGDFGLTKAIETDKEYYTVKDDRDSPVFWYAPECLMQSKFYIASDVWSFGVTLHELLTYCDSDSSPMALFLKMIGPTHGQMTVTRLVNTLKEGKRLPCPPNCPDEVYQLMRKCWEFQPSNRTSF
T1 sequence (P29597 575-869): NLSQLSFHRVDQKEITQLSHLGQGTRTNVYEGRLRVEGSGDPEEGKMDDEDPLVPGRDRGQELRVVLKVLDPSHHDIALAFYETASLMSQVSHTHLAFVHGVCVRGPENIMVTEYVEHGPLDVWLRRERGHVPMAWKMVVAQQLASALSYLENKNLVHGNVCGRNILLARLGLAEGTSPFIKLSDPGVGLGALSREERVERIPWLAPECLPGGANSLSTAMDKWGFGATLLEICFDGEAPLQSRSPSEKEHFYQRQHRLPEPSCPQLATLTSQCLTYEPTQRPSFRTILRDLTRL

The Kd is the concentration at which binding is half-saturated. The low end stands for higher affinity, the high end for lower affinity. In the case of `[2H]C([2H])([2H])NC(=O)c1nnc(NC(=O)C2CC2)cc1Nc1cccc(-c2cc(P(=O)(C3CC3)C3CC3)n(C)n2)c1OC` [US20240343747, Example B41], the results for the Kd in test [1], in test [2] and in test [3] were 14 pM, above 30 µM and above 30 µM, respectively.
